pIC50: −log10 of the molar value. Starred links: 1 amine or outer side, 2 acyl side, 3 side chain; linkers in the order of their positions; H or OH if unused. Positions of bridges follow the written chain, without caps; N, C: chain ends. Non-standard residues stand in square brackets, D forms with d. Residues, ends and D or L forms follow the SMILES beside them. Groups on a side chain read outwards from the residue. *: point of attachment. dPhe(4-NH2) = Nc1ccc(C[C@@H](N)C(=O)O)cc1; Phe(4-NH2) = Nc1ccc(C[C@H](N)C(=O)O)cc1; NH(2-Me-phenyl) = Cc1ccccc1N*; Phg = N[C@H](C(=O)O)c1ccccc1; d(β3hA) = C[C@@H](N)CC(=O)O; CO = O=C([*:1])[*:2]; NHPr = CCCN*

Experimental findings from PMC10108353, “Design and Pharmacological Characterization of α4β1 Integrin Cyclopeptide Agonists: Computational Investigation of Ligand Determinants for Agonism versus Antagonism” (Journal of Medicinal Chemistry, 2023) are described below.

Data set [1] concerns the target T1, α4β1 integrin (Homo sapiens, UniProt P05556+P13612). The experiment in a line: Jurkat E6.1 cell adhesion to FN. The settings on record: for agonist or antagonist behaviour, FN/Jurkat E6.1 α4β1: agonist = adhesion index >1, antagonist = adhesion index <1.
Experimental: (§1) Cells were seeded in 96-well plates coated with the specific natural human recombinant ligands (Table 1) and allowed to adhere in the presence of increasing concentrations (10^–10 to 10^–4 M) of the synthesized CPPs before the determination of the number of adherent cells (as described in Experimental Section).
(§2) For adhesion assays on Jurkat E6.1, RPMI8866, or HL60 cells, black 96-well plates were coated overnight at 4 °C with VCAM-1 or ICAM-1 or MAdCAM-1 (5 μg/mL) or Fg (10 μg/mL). The cells were counted, stained with CellTracker green CMFDA (12.5 μM, 30 min at 37 °C, Life Technologies), and after three washes, were preincubated with increasing concentrations of new CPP (10^–10 to 10^–4 M) or with the vehicle (methanol) for 30 min at 37 °C. Then cells were plated (500 000/well) on coated wells and incubated for 30 min at 37 °C. After three washes, adhered cells were lysed with 0.5% Triton X-100 in PBS (30 min at 4 °C) and fluorescence was measured (Ex485 nm/Em535 nm) in an EnSpire Multimode Plate Reader (PerkinElmer, Waltham, MA). For adhesion assays mediated by α5β1 integrin, 96-well plates were coated by passive adsorption with FN (10 μg/mL) overnight at 4 °C. K562 cells were counted and preincubated with various concentrations of the peptides or with the vehicle (methanol) for 30 min at RT. Afterward, the cells were plated (50 000 cells/well) and incubated at RT for 1 h. The wells were then washed with 1% BSA in PBS (phosphate-buffered saline) to take off nonadherent cells, and 50 μL of hexosaminidase substrate was added; after addition of 100 μL of stopping solution, the plates were read at 405 nm. In both types of adhesion assay, the number of adherent cells was determined by comparison with a standard curve made in the same plate. Experiments were carried out in quadruplicate and repeated at least three times.
(§3) Jurkat E6.1 (expressing α4β1 and αLβ2 integrin), K562 (expressing α5β1 integrin) and HL60 (expressing αMβ2 integrin) cell lines were purchased from ATCC (Rockville, MD, USA); these cells were routinely cultured in RPMI-1640 (Life Technologies) supplemented with glutamine and 10% FBS.
(§4) Cells were grown at 37 °C under 5% CO2 humidified atmosphere.
In data set [2] the target is T1, α4β1 integrin. The experiment in a line: Jurkat E6.1 cell adhesion to VCAM-1. The settings on record: agonist = adhesion index >1, antagonist = adhesion index <1.
Experimental: as §1, §2, §3, §4
The subject of data set [3] is ERK1/2 phosphorylation mediated by α4β1 integrin. The experiment in a line: ERK1/2 phosphorylation in Jurkat E6.1 cells (Western blot). Type of data set: cell-based. As to conditions: compound 10^–7 to 10^–9 M, no FN, vs vehicle. Here is the method: Intracellular signaling generated by the interaction of ECM components with α4β1 integrin produces an increase in the phosphorylation of cytoplasmatic second messengers such as ERK1/2 that contribute to α4 integrin-mediated cell functions.
Western blot analysis was performed as previously described, with the following modifications. […] On the other hand, after 1 h incubation with integrin antagonists, the cells were then seeded on FN (10 μg/mL) coated plates for 1 h. Integrin agonists were not incubated with FN. At the end of the incubation time, Jurkat E6.1 cells were lysed on ice using a mammalian protein extraction reagent (M-PER; Pierce, Rockford, IL) supplemented with a phosphatase inhibitor cocktail. Protein extracts were quantified using a BCA protein assay kit (Pierce), separated by 12% SDS-PAGE gel, transferred onto nitrocellulose membranes, and immunoblotted with anti-phospho-ERK1/2 (1:1000) (Cell Signaling Technology, Danvers, MA) or anti-total ERK1/2 antibodies (1:2500) (Cell Signaling Technology). Protocols for digital image acquisition and analysis have been previously described.[73] Densitometric analysis of the bands is reported (mean ± SD; n = 3); the amount of phosphorylated ERK1/2 (pERK1/2) is normalized to that of total ERK1/2 (totERK1/2). Experiments were replicated independently at least three times. Statistical analyses were performed using one-way ANOVA and the post hoc Newman–Keuls test.

The conditions of data set [4]: from H-isoAsp(OBn)-Phu-Leu-Asp(OBn)-Val-OH; amide bond; 16-membered ring; HBTU/HOBt/DIPEA; DMF; 25.0 °C.

T1 sequence (P13612 34-1032): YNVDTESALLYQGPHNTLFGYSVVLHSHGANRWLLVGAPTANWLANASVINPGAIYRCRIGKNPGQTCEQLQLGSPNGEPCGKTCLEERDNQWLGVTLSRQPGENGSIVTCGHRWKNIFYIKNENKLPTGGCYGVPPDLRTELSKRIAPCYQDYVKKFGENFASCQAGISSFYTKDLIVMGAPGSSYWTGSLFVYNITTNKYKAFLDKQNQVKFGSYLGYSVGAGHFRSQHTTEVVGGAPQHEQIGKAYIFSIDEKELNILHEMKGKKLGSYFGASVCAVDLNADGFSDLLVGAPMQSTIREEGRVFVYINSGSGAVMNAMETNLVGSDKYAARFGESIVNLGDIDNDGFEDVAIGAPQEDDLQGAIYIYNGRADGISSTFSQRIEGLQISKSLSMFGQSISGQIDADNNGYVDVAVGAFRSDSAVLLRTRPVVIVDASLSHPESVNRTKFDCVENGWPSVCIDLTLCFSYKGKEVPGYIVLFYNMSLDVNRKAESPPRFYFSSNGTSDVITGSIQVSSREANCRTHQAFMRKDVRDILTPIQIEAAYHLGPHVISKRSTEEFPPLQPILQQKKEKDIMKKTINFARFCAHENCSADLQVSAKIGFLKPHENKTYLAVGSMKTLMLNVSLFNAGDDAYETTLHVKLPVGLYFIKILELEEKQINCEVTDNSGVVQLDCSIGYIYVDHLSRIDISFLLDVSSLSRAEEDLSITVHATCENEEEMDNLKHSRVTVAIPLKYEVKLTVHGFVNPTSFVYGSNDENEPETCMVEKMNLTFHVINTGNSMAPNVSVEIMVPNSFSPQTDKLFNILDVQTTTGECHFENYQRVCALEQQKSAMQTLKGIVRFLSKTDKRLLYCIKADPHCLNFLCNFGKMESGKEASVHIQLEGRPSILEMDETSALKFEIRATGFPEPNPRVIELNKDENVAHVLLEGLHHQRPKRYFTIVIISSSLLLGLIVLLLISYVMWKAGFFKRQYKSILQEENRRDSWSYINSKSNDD
T1 sequence (P05556 21-798): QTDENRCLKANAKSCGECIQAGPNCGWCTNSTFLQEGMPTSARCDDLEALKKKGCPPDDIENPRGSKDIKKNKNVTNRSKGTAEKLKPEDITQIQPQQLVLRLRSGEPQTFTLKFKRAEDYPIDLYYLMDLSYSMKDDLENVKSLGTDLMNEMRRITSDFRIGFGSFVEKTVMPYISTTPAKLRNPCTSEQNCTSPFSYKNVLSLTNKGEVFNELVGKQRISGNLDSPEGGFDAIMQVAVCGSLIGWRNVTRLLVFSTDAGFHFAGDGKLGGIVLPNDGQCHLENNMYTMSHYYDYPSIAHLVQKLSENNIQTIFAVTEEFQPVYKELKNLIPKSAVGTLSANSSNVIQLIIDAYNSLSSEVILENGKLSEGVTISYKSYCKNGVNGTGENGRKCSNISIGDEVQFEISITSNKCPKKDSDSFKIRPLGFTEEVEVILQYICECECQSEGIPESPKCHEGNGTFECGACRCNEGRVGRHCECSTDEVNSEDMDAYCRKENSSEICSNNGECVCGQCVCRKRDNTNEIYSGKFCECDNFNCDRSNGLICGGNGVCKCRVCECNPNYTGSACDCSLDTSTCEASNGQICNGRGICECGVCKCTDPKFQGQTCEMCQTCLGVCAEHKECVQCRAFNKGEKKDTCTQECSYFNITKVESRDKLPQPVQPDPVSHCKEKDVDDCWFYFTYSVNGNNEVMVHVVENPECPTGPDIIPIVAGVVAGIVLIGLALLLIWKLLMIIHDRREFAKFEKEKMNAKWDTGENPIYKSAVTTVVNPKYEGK

With `Cc1ccccc1NC(=O)Nc1ccc(C[C@H]2NC(=O)C[C@H](C(=O)O)NC(=O)[C@H](C(C)C)NC(=O)[C@H](CC(=O)O)NC(=O)[C@H](CC(C)C)NC2=O)cc1` [3d, c[(R)-Phu-Leu-Asp-Val-(R)-isoAsp]] ([dPhe(4-NH2)]([CO-NH(2-Me-phenyl)])LDV[dD]-OH; lactam N-5 (inferred)), the “agonist or antagonist behaviour, FN/Jurkat E6.1 α4β1” value in data set [1] is “agonist”. In addition, the “agonist or antagonist behaviour, VCAM-1/Jurkat E6.1 α4β1” value in data set [2] was “agonist”. Also, the “effect on ERK1/2 phosphorylation, compound administered alone” value in data set [3] is recorded as “significant concentration-dependent increase of ERK1/2 phosphorylation”.

In turn, `Cc1ccccc1NC(=O)Nc1ccc(C[C@@H]2NC(=O)C[C@@H](C)NC(=O)[C@H](C(C)C)NC(=O)[C@H](CC(=O)O)NC(=O)[C@H](CC(C)C)NC2=O)cc1` [11a, c[(S)-Phu-Leu-Asp-Val-(R)-β^3homoAla]] (cyclo([Phe(4-NH2)]([CO-NH(2-Me-phenyl)])LDV[d(β3hA)])) had a pIC50 in data set [1] of under 5.30.

Consider `Cc1ccccc1NC(=O)Nc1ccc(C[C@H]2NC(=O)C[C@@H](C(=O)O)NC(=O)[C@H](C(C)C)NC(=O)[C@H](C)NC(=O)[C@H](CC(C)C)NC2=O)cc1` [12c, c[(R)-Phu-Leu-Ala-Val-(S)-isoAsp]] ([dPhe(4-NH2)]([CO-NH(2-Me-phenyl)])LAVD-OH; lactam N-5 (inferred)), for which, in data set [1], the “agonist or antagonist behaviour, FN/Jurkat E6.1 α4β1” value is listed as “agonist”.

`Cc1ccccc1NC(=O)Nc1ccc(C[C@@H]2NC(=O)C[C@@H](C(=O)OCc3ccccc3)NC(=O)[C@H](C(C)C)NC(=O)[C@H](CC(=O)OCc3ccccc3)NC(=O)[C@H](CC(C)C)NC2=O)cc1` [H-isoAsp(OBn)-Phu-Leu-Asp(OBn)-Val-OH] gave a ring closure, yield after HPLC in data set [4] of 0%.

In the case of `CCCNC(=O)[C@@H]1CC(=O)N[C@@H](Cc2ccc(NC(=O)Nc3ccccc3C)cc2)C(=O)N[C@@H](CC(C)C)C(=O)N[C@@H](CC(=O)O)C(=O)N[C@@H](C(C)C)C(=O)N1` [compound 13, c[(S)-PhU-Leu-Asp-Val-(S)-isoAsp(nPr)]] ([Phe(4-NH2)]([CO-NH(2-Me-phenyl)])LDVD-NHPr; lactam N-5 (inferred)), in data set [1], the pIC50 was under 5.30 and the “agonist or antagonist behaviour, FN/Jurkat E6.1 α4β1” value is “complete loss of activity”.

The molecule `Cc1ccccc1NC(=O)Nc1ccc(C[C@@H]2NC(=O)C[C@@H](C(=O)O)NC(=O)[C@H](C(C)C)NC(=O)[C@H](CC(=O)O)NC(=O)[C@H](Cc3ccccc3)NC2=O)cc1` [compound 14, c[(S)-Phu-Phe-Asp-Val-(S)-isoAsp]] ([Phe(4-NH2)]([CO-NH(2-Me-phenyl)])FDVD-OH; lactam N-5) showed a pIC50 in data set [1] of under 5.30.

For the molecule `Cc1ccccc1NC(=O)Nc1ccc(C[C@H]2NC(=O)C[C@@H](C(=O)O)NC(=O)[C@H](c3ccccc3)NC(=O)[C@H](CC(=O)O)NC(=O)[C@H](CC(C)C)NC2=O)cc1` [compound 16, c[(R)-Phu-Leu-Asp-Phg-(S)-isoAsp]] ([dPhe(4-NH2)]([CO-NH(2-Me-phenyl)])LD[Phg]D-OH; lactam N-5), the negative-log IC50 (pIC50) in data set [1] is under 5.30.

As a reminder, the pIC50 is the IC50 on a negative log10 scale, so that one unit is a factor of ten.
